Assay results from US20240301474A1, “NUCLEASES FOR SIGNAL AMPLIFICATION” (Amazon Technologies, Inc., priority 2021, published 2024).
Entries after “also recorded” stand apart in the source; their conditions may differ. {FAM} = 6-carboxyfluorescein (IDT 56-FAM); {IABkFQ} = Iowa Black FQ quencher

Legend:
PfuCsx1 [1] = assay: Reporter preference assay, PfuCsx1 activated by cA4; conditions: 100 nM PfuCsx1, 10 μM cA4, FIG. 21
Description: (§4) Varying concentrations of nuclease (SyCsx1, PfuCsx1, or TtCsm6) in reaction buffer (2.1 NEB Buffer-50 mM NaCl, 10 mM Tris-HCl, 10 mM MgCl2, 100 μg/ml BSA) with 1 U/μl murine RNase inhibitor (NEB) and 600 nM FAM-Q reporter (IDT) was mixed with varying concentrations of cA3, cA4, cA6, rA3>P or rA4>P (Biolog or IDT). Negative control was water free of activator. Measurements were taken at 37° C. every 1 min in a Tecan Infinite 200 PRO plate reader (λex, 485 nm; λem, 535 nm).
(§5) The objective of these experiments was to determine the preferred reporters for SyCsx1, PfuCsx1, and TtCsm6 incubated with cyclic activator cA4.

SyCsx1 [2] = assay: Reporter preference assay, SyCsx1 activated by cA4; conditions: 100 nM SyCsx1, 10 μM cA4, FIG. 20
Description: as §4, §5

TtCsm6 [3] = target: T1, TtCsm6 (Thermus thermophilus, UniProt Q53W17, G18R); conditions: 100 nM TtCsm6, 10 μM cA4, FIG. 22
Description: as §4, §5

SyCsx1 [4] = assay: Activation of SyCsx1 by linear and cyclic activators (FAM-Q fluorescence); conditions: 100 nM SyCsx1, FAM-Q polyC ssRNA reporter; for activation of SyCsx1 (fluorescence time course): 37° C., FIG. 14A/14B; for rapidity of SyCsx1 activation (time until maximum fluorescence): FIG. 14B
Description: (§6) The objective of these experiments was to assess activation of SyCsx1, PfuCsx1, and TtCsm6 by incubating the nucleases with cyclic or linear activators.
as §4

TtCsm6 [5] = target: T1, TtCsm6; assay: Activation of TtCsm6 by linear and cyclic activators (fluorescence); conditions: 100 nM TtCsm6, RNAse Alert (IDT) reporter, FIG. 16
Description: as §6, §4

PfuCsx1 [6] = assay: Activation of PfuCsx1 by linear and cyclic activators (FAM-Q fluorescence); conditions: 100 nM PfuCsx1, FAM-Q polyA ssRNA reporter, FIG. 15
Description: as §6, §4

NucC enzyme = NucC enzyme (Escherichia coli, UniProt D7Y2H5); assay: NucC activation by cyclic and linear activator with dsM13 plasmid; format: biochemical; conditions: 10 nM NucC, 10 nM activator, 37° C., 4 hours
Description: The objective of this experiment was to achieve activation of the NucC enzyme by incubating this enzyme with its cyclic (c-triAMP) and linear (triAMP)>P activator and the dsM13 plasmid.
The conditions that were tested are outlined in Table 14 below.
A NucC Mix (dsM13) was prepared as outlined in Table 15 below.
The mixture described in Table 15 was divided into two PCT tubes. The mixture was then incubated at 37° C. for 4 hours. Next, the samples were run on a 1.5% agarose gel.

PfuCsx1 [7] = assay: Limit of detection (LoD) assay, PfuCsx1 activated by rA4>P; conditions: 100 nM PfuCsx1, FAM-Q polyA reporter; 0.01, 0.1, 1, 10 μM tested; FIG. 18
Description: as §4

TtCsm6 [8] = target: T1, TtCsm6; assay: Limit of detection (LoD) assay, TtCsm6 activated by rA4>P; conditions: 100 nM TtCsm6, FAM-Q polyC reporter; 0.01, 0.1, 1, 10 μM tested; FIG. 19
Description: as §4

SyCsx1 [9] = assay: Limit of detection (LoD) assay, SyCsx1 activated by rA4>P; conditions: 10 nM SyCsx1, FAM-Q polyC reporter; 0.1, 1, 10 nM tested; FIG. 17
Description: as §4

[10] = tested on: dsM13 (M13mp18 RF I plasmid); assay: NucC activity assay with M13 plasmid (double-stranded); format: biochemical; conditions: 10 nM NucC, 10 nM c(triAMP), 37° C., 2:30 hours, 1% agarose gel
Description: (§1) The objective of this experiment was to determine whether the NucC enzyme cleaves both double-stranded DNA and single-stranded DNA by incubating the enzyme with its cyclic activator (c-triAMP) and the dsM13 or ssM13 plasmid.
(§2) The conditions that were tested are outlined in Table 11 below.
A first NucC Mix (dsM13) was prepared as outlined in Table 12 below.
(§3) Each mixture described in Table 12 and Table 13 was divided into two PCT tubes. The mixture was then incubated at 37° C. for 2:30 hours. Next, the samples were run on a 1% agarose gel.

[11] = tested on: ssM13 (M13mp18 single-stranded plasmid); assay: NucC activity assay with M13 plasmid (single-stranded); format: biochemical; conditions: 10 nM NucC, 10 nM c(triAMP), 37° C., 2:30 hours, 1% agarose gel
Description: as §1, §2
A second NucC Mix (ssM13) was prepared as outlined in Table 13 below.
as §3

T1 sequence (Q53W17 whole entry G18R): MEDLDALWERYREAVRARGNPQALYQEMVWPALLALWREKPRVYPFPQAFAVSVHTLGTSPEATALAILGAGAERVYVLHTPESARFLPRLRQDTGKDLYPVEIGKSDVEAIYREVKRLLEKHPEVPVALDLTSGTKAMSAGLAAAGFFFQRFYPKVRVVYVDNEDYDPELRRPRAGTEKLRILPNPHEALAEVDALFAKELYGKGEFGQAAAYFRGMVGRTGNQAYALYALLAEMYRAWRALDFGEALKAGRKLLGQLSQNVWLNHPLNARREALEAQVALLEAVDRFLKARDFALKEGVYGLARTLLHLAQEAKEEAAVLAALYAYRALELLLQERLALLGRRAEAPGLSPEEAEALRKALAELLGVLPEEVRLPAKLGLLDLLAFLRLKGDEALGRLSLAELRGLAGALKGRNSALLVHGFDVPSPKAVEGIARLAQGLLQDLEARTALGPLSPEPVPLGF
SyCsx1, sequence (as listed by the source): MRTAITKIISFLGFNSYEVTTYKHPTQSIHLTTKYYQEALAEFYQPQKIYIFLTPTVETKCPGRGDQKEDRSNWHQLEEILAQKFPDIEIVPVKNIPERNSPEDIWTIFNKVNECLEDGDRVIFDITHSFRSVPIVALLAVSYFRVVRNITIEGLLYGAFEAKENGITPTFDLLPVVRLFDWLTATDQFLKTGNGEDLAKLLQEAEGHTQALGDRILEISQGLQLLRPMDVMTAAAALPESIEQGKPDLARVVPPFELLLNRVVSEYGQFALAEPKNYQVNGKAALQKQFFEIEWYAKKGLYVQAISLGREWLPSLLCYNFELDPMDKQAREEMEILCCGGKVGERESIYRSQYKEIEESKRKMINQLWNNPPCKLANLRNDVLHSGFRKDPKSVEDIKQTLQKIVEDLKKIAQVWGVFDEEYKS
PfuCsx1, sequence (as listed by the source): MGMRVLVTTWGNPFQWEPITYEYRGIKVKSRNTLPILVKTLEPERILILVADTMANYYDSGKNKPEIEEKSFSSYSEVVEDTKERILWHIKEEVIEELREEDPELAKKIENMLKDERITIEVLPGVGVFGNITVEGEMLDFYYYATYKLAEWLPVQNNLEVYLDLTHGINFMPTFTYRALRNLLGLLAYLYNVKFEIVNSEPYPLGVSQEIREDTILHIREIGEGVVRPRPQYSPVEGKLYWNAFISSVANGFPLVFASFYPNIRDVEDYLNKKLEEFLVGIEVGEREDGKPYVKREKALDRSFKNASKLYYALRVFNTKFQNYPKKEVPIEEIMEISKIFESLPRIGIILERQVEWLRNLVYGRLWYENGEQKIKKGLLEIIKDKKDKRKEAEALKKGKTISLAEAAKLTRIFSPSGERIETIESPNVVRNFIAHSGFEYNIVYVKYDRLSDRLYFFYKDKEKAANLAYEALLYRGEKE

## 5′-/56 FAM/rArUrGrUrCrCrCrCrUrGrArA/3IABKFQ/-3′ (AUGUCCCCUGAA; RNA, 5' {FAM}, 3' {IABkFQ}, backbone not given here) [FAM-Q UCU]
PfuCsx1 [1]
  reporter preference upon cleavage by PfuCsx1: best reporters
SyCsx1 [2]
  reporter preference upon cleavage by SyCsx1: best reporters
TtCsm6 [3]
  reporter preference upon cleavage by TtCsm6: best reporters

## cyclic hexaAMP [cA6]
SyCsx1 [4]
  activation of SyCsx1 (fluorescence time course): activated

## cyclic tetraAMP [cA4]
TtCsm6 [5]
  activation of TtCsm6 (fluorescence time course): activated
PfuCsx1 [6]
  activation of PfuCsx1 (fluorescence time course): activated
SyCsx1 [4]
  activation of SyCsx1 (fluorescence time course): activated
  rapidity of SyCsx1 activation (time until maximum fluorescence): most rapid activations

## cyclic triAMP [c-triAMP]
NucC enzyme; FIG. 13
  degradation of the dsM13 plasmid by NucC in the presence of activator: complete degradation
NucC enzyme; dsM13 plasmid, 1.5% agarose gel
  activation of the NucC enzyme: achieved; also recorded: activated

## linear tetraAMP>P [rA4>P]
PfuCsx1 [7]
  activator concentration that activates PfuCsx1 (detection limit): ≥ 1 µM
TtCsm6 [5]
  activation of TtCsm6 (fluorescence time course): activated
PfuCsx1 [6]
  activation of PfuCsx1 (fluorescence time course): activated
SyCsx1 [4]
  activation of SyCsx1 (fluorescence time course): activated
  rapidity of SyCsx1 activation (time until maximum fluorescence): most rapid activations
TtCsm6 [8]
  activator concentration that activates TtCsm6 (detection limit): ≥ 1 µM
SyCsx1 [9]
  activator concentration that activates SyCsx1 (detection limit): 0.1 nM

## linear triAMP>P [rA3>P]
SyCsx1 [4]
  activation of SyCsx1 (fluorescence time course): activated

B1: NucC: nuclease; amino acid sequence SEQ ID NO: 2 (NucC wild sequence) (protein, listed as Escherichia coli)
chain: MSDWSLSQLFASLHEDIQLRLGTARKAFQHPGAKGDASEGVWIEMLDTYLPKRYQAANAFVVDSLGNFSDQIDVVVFDRQYSPFIFKFNEQIIVPAESVYAVFEAKQSASADLVAYAQRKVASVRRLHRTSLPIPHAGGTYPAKPLIPILGGLLTFESDWSPALGMSFDKALNGDLSDGRLDMGCVASHGHFYFNNIDSKFNFEHGNKPATAFLFRLIAQLQFSGTVPMIDIDAYGKWLAN
[10]
  cleavage of double-stranded DNA: cleaved
[11]
  cleavage of single-stranded nucleic acid: not
